Test results from ChEMBL document CHEMBL3734728, “2,30-Bis(10H-indole) heterocycles: New p53/MDM2/MDMX antagonists” (Bioorg Med Chem Lett, 2015).

Legend:
Protein Mdm4 = target: T1, Protein Mdm4 (Homo sapiens, UniProt O15151)
T1 sequence (O15151 whole entry): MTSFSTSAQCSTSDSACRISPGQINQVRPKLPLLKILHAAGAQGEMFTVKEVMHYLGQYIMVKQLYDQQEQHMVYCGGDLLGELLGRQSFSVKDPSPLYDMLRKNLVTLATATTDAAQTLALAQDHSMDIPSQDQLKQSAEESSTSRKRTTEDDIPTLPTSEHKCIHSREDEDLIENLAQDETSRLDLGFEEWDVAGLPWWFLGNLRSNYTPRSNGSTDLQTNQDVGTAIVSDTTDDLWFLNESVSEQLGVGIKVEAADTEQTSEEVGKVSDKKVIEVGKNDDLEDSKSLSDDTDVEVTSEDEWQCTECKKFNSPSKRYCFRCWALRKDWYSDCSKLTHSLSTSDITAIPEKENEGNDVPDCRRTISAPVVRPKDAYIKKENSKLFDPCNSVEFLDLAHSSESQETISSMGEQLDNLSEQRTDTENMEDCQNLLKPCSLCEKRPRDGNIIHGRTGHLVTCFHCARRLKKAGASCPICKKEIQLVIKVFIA

[1] = Lipophilicity, logP of the compound; type: physicochemical; details: octanol/water
[2] = target: E3 ubiquitin-protein ligase Mdm2 (Homo sapiens, UniProt Q00987)
E3 ubiquitin-protein ligase Mdm2, sequence (Q00987 whole entry): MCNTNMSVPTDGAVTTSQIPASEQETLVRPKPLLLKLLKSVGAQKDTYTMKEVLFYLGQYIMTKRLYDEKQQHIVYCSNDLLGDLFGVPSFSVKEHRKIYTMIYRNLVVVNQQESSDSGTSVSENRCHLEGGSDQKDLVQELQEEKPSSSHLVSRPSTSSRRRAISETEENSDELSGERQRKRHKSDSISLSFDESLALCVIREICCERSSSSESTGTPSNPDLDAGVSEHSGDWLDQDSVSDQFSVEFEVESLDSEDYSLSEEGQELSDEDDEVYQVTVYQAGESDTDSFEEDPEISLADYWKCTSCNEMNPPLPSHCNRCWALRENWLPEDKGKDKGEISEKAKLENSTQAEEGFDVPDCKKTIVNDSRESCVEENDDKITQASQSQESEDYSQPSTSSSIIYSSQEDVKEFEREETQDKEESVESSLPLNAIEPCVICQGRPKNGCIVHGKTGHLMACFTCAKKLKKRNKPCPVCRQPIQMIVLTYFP

logP [1]	Compound	Ki (Protein Mdm4) [µM]	Ki [2] [µM]
7.38	O=C(O)c1[nH]c2cc(Cl)ccc2c1-c1c(-c2ccc(F)cc2)c2ccccc2n1Cc1ccc(Cl)cc1	–	–
6.4	O=C(NCCN1CCOCC1)c1[nH]c2cc(Cl)ccc2c1-c1c(-c2ccccc2)c2ccccc2n1Cc1ccc(Cl)cc1	–	–
7.82	CCOC(=O)c1[nH]c2cc(Cl)ccc2c1-c1c(-c2ccccc2)c2ccccc2n1Cc1ccc(Cl)cc1	–	–
7.61	Clc1ccc(Cn2c(-c3c[nH]c4cc(Cl)ccc34)c(-c3ccccc3)c3ccccc32)cc1	–	–
7.98	CCOC(=O)c1[nH]c2cc(Cl)ccc2c1-c1c(-c2ccc(F)cc2)c2ccccc2n1Cc1ccc(Cl)cc1	–	–
7.22	O=C(O)c1[nH]c2cc(Cl)ccc2c1-c1c(-c2ccccc2)c2ccccc2n1Cc1ccc(Cl)cc1	–	–

Compound	logP [1]	Ki (Protein Mdm4) [µM]	Ki [2] [µM]
CCOC(=O)c1[nH]c2cc(Cl)ccc2c1-c1c(-c2ccc(Cl)cc2)c2ccccc2n1Cc1ccc(Cl)cc1	8.38	> 60	> 22
